In this assay the target is Bromodomain-containing protein 3 (Homo sapiens, UniProt Q15059). As to the kind of experiment: Induction of BRD3 degradation in human MDA-MB-231 cells at 10 uM incubated for 8 hrs in presence of MG132 by immunoblotting analysis. In kind it is cell-based. Background: A western blot detects proteins with antibodies after separation by electrophoresis.

Each structure is given as a SMILES string. The source made the active and inactive calls. The calls are words filed in the database; no cut-off is given here.

Sequence of Bromodomain-containing protein 3 (Q15059 2-726 limits assumed): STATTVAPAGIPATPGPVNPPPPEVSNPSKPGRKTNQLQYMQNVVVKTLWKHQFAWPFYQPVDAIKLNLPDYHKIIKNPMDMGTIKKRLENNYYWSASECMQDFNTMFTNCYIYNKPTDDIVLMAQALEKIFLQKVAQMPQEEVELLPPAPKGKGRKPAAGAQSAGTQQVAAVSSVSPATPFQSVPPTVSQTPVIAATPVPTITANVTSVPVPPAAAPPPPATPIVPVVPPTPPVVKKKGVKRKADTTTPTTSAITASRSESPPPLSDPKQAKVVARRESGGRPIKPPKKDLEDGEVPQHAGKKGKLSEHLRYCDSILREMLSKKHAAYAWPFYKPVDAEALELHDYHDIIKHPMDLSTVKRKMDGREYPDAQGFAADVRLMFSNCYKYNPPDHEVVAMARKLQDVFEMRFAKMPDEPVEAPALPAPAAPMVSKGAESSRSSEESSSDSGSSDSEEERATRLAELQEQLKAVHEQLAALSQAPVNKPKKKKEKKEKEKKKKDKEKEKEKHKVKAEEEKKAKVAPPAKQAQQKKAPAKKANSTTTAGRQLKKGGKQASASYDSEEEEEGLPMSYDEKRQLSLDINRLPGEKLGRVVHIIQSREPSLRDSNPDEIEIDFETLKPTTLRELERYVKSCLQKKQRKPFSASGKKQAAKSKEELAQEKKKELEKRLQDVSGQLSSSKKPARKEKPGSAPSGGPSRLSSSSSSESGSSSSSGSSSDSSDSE

For `CC(=O)OC[C@]12CC[C@H]3[C@@H](C[C@H]4O[C@]45CC=CC(=O)[C@]35C)[C@]1(O)CC[C@@]2(O)[C@@](C)(O)[C@H]1CC(C)=C(C)C(=O)O1`, the result was inactive.

(Values after ChEMBL document CHEMBL5316292 (J Med Chem, 2023).)
